Experimental data: patent publication US20250114345A1, “COMPOUNDS AND COMPOSITIONS AS CBP/P300 DEGRADERS AND USES THEREOF” (Oncopia Therapeutics, Inc. d/b/a/ SK Life Science Labs, priority 2023, published 2025)

Columns and labels:
CBP = biological target: T1, CBP (Homo sapiens, UniProt Q92793); assay: CBP degradation, HiBit technology in A549 CBP HiBit cells (24 h); type: cell-based; conditions: 24 hrs post treatment
T1 construct: host or cells: A549 CBP HiBit cells
Method: p300 and CBP degradation potency and Dmax were determined using in cell western (ICW) assay technology in H1299 cells or HiBit technology in A549 HiBit cells.
A549 P300 HiBit and A549 CBP HiBit cells were plated in separate 384-well, TC treated, white-opaque, flat-bottomed microplate. Cells were plated at a cell density of 0.2×10^4 cells per well in assay media comprised of F-12K, 10% heat inactivated FBS, and 1% penicillin/streptomycin. Assay microplates containing HiBit cells were placed in a 37° C., 5% CO2, tissue culture incubator and left to equilibrate overnight. The next day cells were treated with serial dilutions of test compound made up of 10 mM stock solutions in DMSO. 384-Well plates containing treated cells were then placed back into a 37° C., 5% CO2, tissue culture incubator. Assay microplates containing A549 P300 HiBit cells were incubated for 2 hrs post treatment before P300 destruction was assessed, while microplates containing A549 CBP HiBit cells were incubated for 24 hrs post treatment before CBP destruction was determined. On the day of each assay time point, microplates were removed from the tissue culture incubator and prepared HiBit Lytic detection buffer (Promega, cat #N3O40) was added to each plate. Plates were covered with aluminum foil and incubated for ten minutes at room temperature on an orbital shaker. After incubation, luminescent signal of each plate was measured using the Envision instrument (Perkin Elmer).

p300 = biological target: T2, p300 (Homo sapiens, UniProt Q09472); assay: P300 degradation, HiBit technology in A549 P300 HiBit cells (2 h); type: cell-based; conditions: 2 hrs post treatment; for Dmax: A549, A549 P300 HiBit cells; for DC50: A549 P300 HiBit cells
T2 construct: host or cells: A549 P300 HiBit cells
T2 sequence (Q09472 whole entry): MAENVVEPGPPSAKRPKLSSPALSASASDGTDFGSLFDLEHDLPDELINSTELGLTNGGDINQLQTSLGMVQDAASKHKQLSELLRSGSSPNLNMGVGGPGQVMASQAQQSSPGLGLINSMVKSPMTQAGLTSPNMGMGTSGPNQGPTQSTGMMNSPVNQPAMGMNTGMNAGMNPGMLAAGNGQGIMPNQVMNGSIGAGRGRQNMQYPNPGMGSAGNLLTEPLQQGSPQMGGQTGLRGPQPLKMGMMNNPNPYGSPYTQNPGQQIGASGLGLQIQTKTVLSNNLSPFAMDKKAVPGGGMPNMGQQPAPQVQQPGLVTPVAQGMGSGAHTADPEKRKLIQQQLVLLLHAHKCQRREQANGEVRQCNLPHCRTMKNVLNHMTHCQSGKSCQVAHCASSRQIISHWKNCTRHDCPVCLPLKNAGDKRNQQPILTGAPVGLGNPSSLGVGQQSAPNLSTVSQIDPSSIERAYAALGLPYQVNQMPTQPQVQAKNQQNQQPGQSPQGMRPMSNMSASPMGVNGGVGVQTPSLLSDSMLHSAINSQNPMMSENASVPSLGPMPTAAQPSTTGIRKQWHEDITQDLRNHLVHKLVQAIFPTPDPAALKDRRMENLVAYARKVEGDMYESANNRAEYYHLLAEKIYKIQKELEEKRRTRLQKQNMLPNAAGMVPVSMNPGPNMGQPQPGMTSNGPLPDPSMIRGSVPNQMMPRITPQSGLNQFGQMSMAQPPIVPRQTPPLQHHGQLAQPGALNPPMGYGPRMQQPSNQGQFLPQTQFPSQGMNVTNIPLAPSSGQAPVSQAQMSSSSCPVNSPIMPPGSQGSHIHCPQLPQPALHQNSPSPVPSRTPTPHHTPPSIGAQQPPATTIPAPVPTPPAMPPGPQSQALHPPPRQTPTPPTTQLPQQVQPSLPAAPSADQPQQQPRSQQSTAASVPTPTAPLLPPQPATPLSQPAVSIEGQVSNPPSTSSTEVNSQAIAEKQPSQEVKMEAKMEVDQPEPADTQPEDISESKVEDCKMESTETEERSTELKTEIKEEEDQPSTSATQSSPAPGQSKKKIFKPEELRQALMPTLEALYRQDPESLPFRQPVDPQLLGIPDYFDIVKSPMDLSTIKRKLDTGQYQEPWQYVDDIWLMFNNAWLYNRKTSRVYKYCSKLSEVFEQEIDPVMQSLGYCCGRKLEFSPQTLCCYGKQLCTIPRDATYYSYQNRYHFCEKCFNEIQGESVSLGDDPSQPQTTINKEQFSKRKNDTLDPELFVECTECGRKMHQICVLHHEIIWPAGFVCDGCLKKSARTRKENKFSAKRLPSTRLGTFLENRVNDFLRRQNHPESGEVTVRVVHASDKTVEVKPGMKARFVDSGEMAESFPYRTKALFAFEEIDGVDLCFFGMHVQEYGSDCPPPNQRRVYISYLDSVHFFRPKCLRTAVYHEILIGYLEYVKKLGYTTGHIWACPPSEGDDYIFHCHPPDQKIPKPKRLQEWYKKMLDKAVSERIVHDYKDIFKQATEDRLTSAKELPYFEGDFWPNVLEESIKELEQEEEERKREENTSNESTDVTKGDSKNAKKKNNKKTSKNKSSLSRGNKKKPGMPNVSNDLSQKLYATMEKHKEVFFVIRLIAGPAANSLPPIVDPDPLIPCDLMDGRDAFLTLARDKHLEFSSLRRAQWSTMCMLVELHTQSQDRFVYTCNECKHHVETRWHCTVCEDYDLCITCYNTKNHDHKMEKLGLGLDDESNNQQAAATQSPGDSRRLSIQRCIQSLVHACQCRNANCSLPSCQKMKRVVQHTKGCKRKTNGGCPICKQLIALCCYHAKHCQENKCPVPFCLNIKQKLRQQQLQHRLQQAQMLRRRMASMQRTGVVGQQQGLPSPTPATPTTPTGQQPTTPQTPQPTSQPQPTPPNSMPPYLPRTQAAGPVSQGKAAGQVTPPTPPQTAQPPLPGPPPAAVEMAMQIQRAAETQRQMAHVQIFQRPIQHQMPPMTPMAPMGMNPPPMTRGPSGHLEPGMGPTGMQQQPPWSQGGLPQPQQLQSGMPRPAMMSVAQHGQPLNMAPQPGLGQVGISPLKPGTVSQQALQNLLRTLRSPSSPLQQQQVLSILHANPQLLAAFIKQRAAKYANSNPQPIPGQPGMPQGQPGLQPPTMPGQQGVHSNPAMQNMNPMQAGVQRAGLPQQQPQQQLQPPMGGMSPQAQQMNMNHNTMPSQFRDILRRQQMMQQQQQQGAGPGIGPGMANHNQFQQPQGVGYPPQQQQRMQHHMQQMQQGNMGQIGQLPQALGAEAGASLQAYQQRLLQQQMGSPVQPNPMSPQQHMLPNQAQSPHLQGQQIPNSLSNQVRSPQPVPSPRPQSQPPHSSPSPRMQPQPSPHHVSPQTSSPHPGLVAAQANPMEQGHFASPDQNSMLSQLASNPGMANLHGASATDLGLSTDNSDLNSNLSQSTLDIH
Summary of the method: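 Endogenously HiBiT-tagged A549 cells are plated, left overnight, then treated with a compound dilution series at 37 °C and 5% CO2. At the set time, lytic detection buffer is added and plates are shaken 10 min at room temperature before luminescence is measured to derive potency and Dmax.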

T1 sequence (Q92793 whole entry): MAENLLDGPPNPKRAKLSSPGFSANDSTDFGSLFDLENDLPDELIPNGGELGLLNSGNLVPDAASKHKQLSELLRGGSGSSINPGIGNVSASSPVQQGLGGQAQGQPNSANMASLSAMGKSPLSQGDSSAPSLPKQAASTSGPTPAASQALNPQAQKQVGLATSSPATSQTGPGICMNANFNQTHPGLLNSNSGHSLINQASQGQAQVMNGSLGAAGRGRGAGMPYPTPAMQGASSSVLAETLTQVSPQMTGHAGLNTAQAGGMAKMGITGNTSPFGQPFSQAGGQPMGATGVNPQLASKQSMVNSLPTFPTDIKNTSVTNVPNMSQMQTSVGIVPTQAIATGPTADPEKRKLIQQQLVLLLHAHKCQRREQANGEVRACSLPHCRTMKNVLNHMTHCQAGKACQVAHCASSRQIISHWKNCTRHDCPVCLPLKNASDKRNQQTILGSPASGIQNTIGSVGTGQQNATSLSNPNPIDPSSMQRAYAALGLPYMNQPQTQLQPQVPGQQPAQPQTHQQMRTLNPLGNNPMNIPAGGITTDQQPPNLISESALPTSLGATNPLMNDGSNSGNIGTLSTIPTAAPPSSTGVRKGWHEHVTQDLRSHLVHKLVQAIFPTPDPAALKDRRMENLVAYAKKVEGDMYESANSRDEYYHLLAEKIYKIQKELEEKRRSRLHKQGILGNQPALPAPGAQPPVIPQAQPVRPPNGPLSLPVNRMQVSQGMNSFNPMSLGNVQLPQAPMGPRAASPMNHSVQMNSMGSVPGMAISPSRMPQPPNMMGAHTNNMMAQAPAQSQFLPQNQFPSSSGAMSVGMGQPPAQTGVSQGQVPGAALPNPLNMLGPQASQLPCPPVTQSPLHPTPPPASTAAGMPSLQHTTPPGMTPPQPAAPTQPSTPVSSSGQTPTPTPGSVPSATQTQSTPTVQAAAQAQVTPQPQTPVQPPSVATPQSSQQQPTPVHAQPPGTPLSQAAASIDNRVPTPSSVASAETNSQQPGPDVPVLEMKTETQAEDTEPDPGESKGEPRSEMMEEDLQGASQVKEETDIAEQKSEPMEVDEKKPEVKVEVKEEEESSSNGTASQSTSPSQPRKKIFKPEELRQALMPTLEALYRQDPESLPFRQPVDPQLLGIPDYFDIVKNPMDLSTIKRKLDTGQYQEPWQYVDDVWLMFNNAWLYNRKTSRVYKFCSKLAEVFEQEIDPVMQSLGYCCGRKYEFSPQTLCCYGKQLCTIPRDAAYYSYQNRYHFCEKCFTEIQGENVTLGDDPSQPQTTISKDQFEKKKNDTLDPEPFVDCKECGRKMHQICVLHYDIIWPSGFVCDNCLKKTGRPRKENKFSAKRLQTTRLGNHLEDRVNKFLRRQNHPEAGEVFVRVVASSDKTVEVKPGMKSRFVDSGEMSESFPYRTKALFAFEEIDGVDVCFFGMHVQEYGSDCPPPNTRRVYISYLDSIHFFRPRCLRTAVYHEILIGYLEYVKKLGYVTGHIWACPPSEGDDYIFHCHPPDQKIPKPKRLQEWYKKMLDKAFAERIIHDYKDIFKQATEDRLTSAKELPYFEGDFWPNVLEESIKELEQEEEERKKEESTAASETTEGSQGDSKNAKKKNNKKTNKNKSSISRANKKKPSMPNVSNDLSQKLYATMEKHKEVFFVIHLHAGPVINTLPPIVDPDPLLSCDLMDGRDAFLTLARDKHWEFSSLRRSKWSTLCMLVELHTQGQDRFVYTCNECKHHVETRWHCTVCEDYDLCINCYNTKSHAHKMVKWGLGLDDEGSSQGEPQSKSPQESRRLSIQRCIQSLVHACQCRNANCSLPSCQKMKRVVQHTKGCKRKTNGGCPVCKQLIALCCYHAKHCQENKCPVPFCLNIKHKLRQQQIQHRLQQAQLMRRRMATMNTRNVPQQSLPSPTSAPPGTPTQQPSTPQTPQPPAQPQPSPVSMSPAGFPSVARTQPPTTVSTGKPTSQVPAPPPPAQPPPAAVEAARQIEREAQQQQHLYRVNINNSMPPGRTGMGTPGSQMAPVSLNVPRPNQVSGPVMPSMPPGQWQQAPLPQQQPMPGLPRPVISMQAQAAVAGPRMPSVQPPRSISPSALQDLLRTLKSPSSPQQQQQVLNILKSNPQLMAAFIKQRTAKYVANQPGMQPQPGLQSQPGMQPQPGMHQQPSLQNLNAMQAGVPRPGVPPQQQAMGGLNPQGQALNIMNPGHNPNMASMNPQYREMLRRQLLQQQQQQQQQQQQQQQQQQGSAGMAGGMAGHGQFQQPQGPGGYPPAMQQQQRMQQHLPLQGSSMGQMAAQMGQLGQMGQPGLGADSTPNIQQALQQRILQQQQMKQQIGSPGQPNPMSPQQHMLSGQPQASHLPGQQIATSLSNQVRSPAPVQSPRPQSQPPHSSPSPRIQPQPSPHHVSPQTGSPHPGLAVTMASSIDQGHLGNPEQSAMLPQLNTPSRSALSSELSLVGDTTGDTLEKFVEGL

Compound	DC50 (CBP)	Dmax (CBP)	Dmax (p300)	DC50 (p300)
CC(C)c1cc(-c2cccc3cc(-c4ccc(C(=O)NCC#Cc5ccc6cnn(C7CCC(=O)NC7=O)c6c5F)nc4)ncc23)cc2c1n(C)c(=O)n2C (stereo not drawn) [Example A1, N-(3-(1-(2,6-Dioxopiperidin-3-yl)-7-fluoro-1H-indazol-6-yl)prop-2-yn-1-yl)-5-(8-(7-isopropyl-1,3-dimethyl-2-oxo-2,3-dihydro-1H-benzo[d]imidazol-5-yl)isoquinolin-3-yl)picolinamide]	10 to 99 nM	40 to 59%	> 80%	1 to 9.9 nM
CC(C)c1cc(-c2cccc3cc(-c4ccc(C(=O)NCC#Cc5cccc(NC67CC(C6)C(=O)NC7=O)c5)nc4)ncc23)cc2c1n(C)c(=O)n2C [Example A2, N-(3-(3-((2,4-Dioxo-3-azabicyclo[3.1.1]heptan-1-yl)amino)phenyl)prop-2-yn-1-yl)-5-(8-(7-isopropyl-1,3-dimethyl-2-oxo-2,3-dihydro-1H-benzo[d]imidazol-5-yl)isoquinolin-3-yl)picolinamide]	> 1000 nM	< 20%	> 80%	10 to 99 nM
CC(C)c1cc(-c2cccc3cc(-c4ccc(C(=O)NCC#Cc5ccc6nnn(C7CCC(=O)NC7=O)c6c5)nc4)ncc23)cc2c1n(C)c(=O)n2C (stereo not drawn) [Example A3, N-(3-(1-(2,6-Dioxopiperidin-3-yl)-1H-benzo[d][1,2,3]triazol-6-yl)prop-2-yn-1-yl)-5-(8-(7-isopropyl-1,3-dimethyl-2-oxo-2,3-dihydro-1H-benzo[d]imidazol-5-yl)isoquinolin-3-yl)picolinamide]	> 1000 nM	< 20%	> 80%	< 1 nM
CC(C)c1cc(-c2cccc3cc(-c4ccc(C(=O)NCC#Cc5ccc6c(c5)c(C5CCC(=O)NC5=O)nn6C)nc4)ncc23)cc2c1n(C)c(=O)n2C (stereo not drawn) [Example A5, N-(3-(3-(2,6-Dioxopiperidin-3-yl)-1-methyl-1H-indazol-5-yl)prop-2-yn-1-yl)-5-(8-(7-isopropyl-1,3-dimethyl-2-oxo-2,3-dihydro-1H-benzo[d]imidazol-5-yl)isoquinolin-3-yl)picolinamide]	10 to 99 nM	> 80%	> 80%	1 to 9.9 nM
CC(C)c1cc(-c2cccc3cc(-c4ccc(C(=O)NCC#Cc5ccc6ccnc(C7CCC(=O)NC7=O)c6c5)nc4)ncc23)cc2c1n(C)c(=O)n2C (stereo not drawn) [Example A10, N-(3-(1-(2,6-Dioxopiperidin-3-yl)isoquinolin-7-yl)prop-2-yn-1-yl)-5-(8-(7-isopropyl-1,3-dimethyl-2-oxo-2,3-dihydro-1H-benzo[d]imidazol-5-yl)isoquinolin-3-yl)picolinamide]	> 1000 nM	< 20%	60 to 79%	10 to 99 nM
CC(C)c1cc(-c2cccc3cc(-c4ccc(C(=O)NCC#Cc5ccc6cnn(C7CCC(=O)NC7=O)c6c5)nc4)ncc23)cc2c1n(C)c(=O)n2C (stereo not drawn) [Example A11, N-(3-(1-(2,6-Dioxopiperidin-3-yl)-1H-indazol-6-yl)prop-2-yn-1-yl)-5-(8-(7-isopropyl-1,3-dimethyl-2-oxo-2,3-dihydro-1H-benzo[d]imidazol-5-yl)isoquinolin-3-yl)picolinamide]	10 to 99 nM	20 to 39%	> 80%	1 to 9.9 nM
CC(C)c1cc(-c2cccc3cc(-c4ccc(C(=O)NCC#Cc5ccc6oc(=O)n(C7CCC(=O)NC7=O)c6c5)nc4)ncc23)cc2c1n(C)c(=O)n2C (stereo not drawn) [Example A14, N-(3-(3-(2,6-Dioxopiperidin-3-yl)-2-oxo-2,3-dihydrobenzo[d]oxazol-5-yl)prop-2-yn-1-yl)-5-(8-(7-isopropyl-1,3-dimethyl-2-oxo-2,3-dihydro-1H-benzo[d]imidazol-5-yl)isoquinolin-3-yl)picolinamide]	10 to 99 nM	60 to 79%	> 80%	1 to 9.9 nM
CC(C)c1cc(-c2cccc3cc(-c4ccc(C(=O)NCC#Cc5ccc6ncn(C7CCC(=O)NC7=O)c6c5)nc4)ncc23)cc2c1n(C)c(=O)n2C (stereo not drawn) [Example A15, N-(3-(1-(2,6-Dioxopiperidin-3-yl)-1H-benzo[d]imidazol-6-yl)prop-2-yn-1-yl)-5-(8-(7-isopropyl-1,3-dimethyl-2-oxo-2,3-dihydro-1H-benzo[d]imidazol-5-yl)isoquinolin-3-yl)picolinamide]	> 1000 nM	< 20%	> 80%	< 1 nM
CC(C)c1cc(-c2cccc3cc(-c4ccc(C(=O)NC/C=C/c5cc(NC6CCC(=O)NC6=O)nn5C)nc4)ncc23)cc2c1n(C)c(=O)n2C (stereo not drawn) [Example A16, (E)-N-(3-(3-((2,6-Dioxopiperidin-3-yl)amino)-1-methyl-1H-pyrazol-5-yl)allyl)-5-(8-(7-isopropyl-1,3-dimethyl-2-oxo-2,3-dihydro-1H-benzo[d]imidazol-5-yl)isoquinolin-3-yl)picolinamide]	> 1000 nM	< 20%	20 to 39%	1 to 9.9 nM

Results, then the compound that gave them:

DC50 (CBP)	Dmax (CBP)	Dmax (p300)	DC50 (p300)	Compound
10 to 99 nM	60 to 79%	> 80%	1 to 9.9 nM	CC(C)c1cc(-c2cccc3cc(-c4ccc(C(=O)NCC#Cc5ccc6c(c5)n(C5CCC(=O)NC5=O)c(=O)n6C)nc4)ncc23)cc2c1n(C)c(=O)n2C (stereo not drawn) [Example A18, N-(3-(3-(2,6-Dioxopiperidin-3-yl)-1-methyl-2-oxo-2,3-dihydro-1H-benzo[d]imidazol-5-yl)prop-2-yn-1-yl)-5-(8-(7-isopropyl-1,3-dimethyl-2-oxo-2,3-dihydro-1H-benzo[d]imidazol-5-yl)isoquinolin-3-yl)picolinamide]
> 1000 nM	< 20%	> 80%	1 to 9.9 nM	CC(C)c1cc(-c2cccc3cc(-c4ccc(C(=O)NCC#Cc5ccc6occ(C7CCC(=O)NC7=O)c6c5)nc4)ncc23)cc2c1n(C)c(=O)n2C (stereo not drawn) [Example A23, N-(3-(3-(2,6-Dioxopiperidin-3-yl)benzofuran-5-yl)prop-2-yn-1-yl)-5-(8-(7-isopropyl-1,3-dimethyl-2-oxo-2,3-dihydro-1H-benzo[d]imidazol-5-yl)isoquinolin-3-yl)picolinamide]
> 1000 nM	< 20%	> 80%	< 1 nM	CC(C)c1cc(-c2cccc3cc(-c4ccc(C(=O)NCC#Cc5cc(NC6CCC(=O)NC6=O)nn5C)nc4)ncc23)cc2c1n(C)c(=O)n2C (stereo not drawn) [Example A24, N-(3-(3-((2,6-Dioxopiperidin-3-yl)amino)-1-methyl-1H-pyrazol-5-yl)prop-2-yn-1-yl)-5-(8-(7-isopropyl-1,3-dimethyl-2-oxo-2,3-dihydro-1H-benzo[d]imidazol-5-yl)isoquinolin-3-yl)picolinamide]
100 to 999 nM	< 20%	> 80%	< 1 nM	CC(C)c1cc(-c2cccc3cc(-c4ccc(C(=O)NCC#Cc5ccc6ncc(C7CCC(=O)NC7=O)n6c5)nc4)ncc23)cc2c1n(C)c(=O)n2C (stereo not drawn) [Example A25, N-(3-(3-(2,6-Dioxopiperidin-3-yl)imidazo[1,2-a]pyridin-6-yl)prop-2-yn-1-yl)-5-(8-(7-isopropyl-1,3-dimethyl-2-oxo-2,3-dihydro-1H-benzo[d]imidazol-5-yl)isoquinolin-3-yl)picolinamide]
> 1000 nM	< 20%	> 80%	1 to 9.9 nM	CC(C)c1cc(-c2cccc3cc(-c4ccc(C(=O)NCC#Cc5cc(OC6CCC(=O)NC6=O)nn5C)nc4)ncc23)cc2c1n(C)c(=O)n2C (stereo not drawn) [Example A29, N-(3-(3-((2,6-Dioxopiperidin-3-yl)oxy)-1-methyl-1H-pyrazol-5-yl)prop-2-yn-1-yl)-5-(8-(7-isopropyl-1,3-dimethyl-2-oxo-2,3-dihydro-1H-benzo[d]imidazol-5-yl)isoquinolin-3-yl)picolinamide]
10 to 99 nM	20 to 39%	–	–	Cc1cc(-c2cc3cccc(-c4cc(C(C)C)c5c(c4)n(C)c(=O)n5C)c3cn2)cnc1C(=O)NCC#Cc1ccc2occ(C3CCC(=O)NC3=O)c2c1 (stereo not drawn) [Example A35, N-(3-(3-(2,6-Dioxopiperidin-3-yl)benzofuran-5-yl)prop-2-yn-1-yl)-5-(8-(7-isopropyl-1,3-dimethyl-2-oxo-2,3-dihydro-1H-benzo[d]imidazol-5-yl)isoquinolin-3-yl)-3-methylpicolinamide]
> 1000 nM	< 20%	–	–	CC(C)c1cc(-c2cccc3cc(-c4ccc(C(=O)NCC#Cc5ccc6c(c5)n(C)c(=O)n6C5CCC(=O)NC5=O)nc4)ncc23)cc2c1n(C)c(=O)n2C (stereo not drawn) [Example A36, N-(3-(1-(2,6-Dioxopiperidin-3-yl)-3-methyl-2-oxo-2,3-dihydro-1H-benzo[d]imidazol-5-yl)prop-2-yn-1-yl)-5-(8-(7-isopropyl-1,3-dimethyl-2-oxo-2,3-dihydro-1H-benzo[d]imidazol-5-yl)isoquinolin-3-yl)picolinamide]
